Assay results taken from US9315451B2, “Tetracycline compounds” (priority 2009, dated 2016).
Read-outs that look alike come from different tables or passages of the source.

Experiments:
S. aureus ATCC 13709 = assay: Neutropenic thigh model; assay type: in vivo; conditions: neutropenic female CD-1 mice, IV, doses ranging 0.3 to 30 or 0.3 to 20 mg/kg, 24 hours post treatment
Protocol: Neutropenic Thigh Model Female CD-1 mice were pre-treated with cyclophosphamide to render the mice neutropenic. Mice were infected with S. aureus ATCC 13709 via injection of 0.1 ml into the right thigh muscle of each mouse. One and a half hours post infection mice were treated IV with test compounds in doses ranging from 0.3 to 30 mg/kg or 0.3 to 20 mg/kg. Four mice were treated with each drug concentration. Twenty-four hours post treatment, mice were euthanized by CO2 inhalation. The right thighs of the mice were aseptically removed, weighed, homogenized, serially diluted, and plated on TSA medium. The plates were incubated overnight at 37° C. in 5% CO2. Colony forming units per gram of thigh was calculated by enumerating the plated colonies then adjusting for serial dilutions and the weight of the thigh.

[1] = Pharmacokinetic studies in rats; assay type: in vivo; conditions: male Sprague Dawley rats; for clearance / bioavailability / AUC / Cmax: rat, plasma, fasted; for clearance: read-out: Cl, IV Rat PK; for bioavailability: oral 10 mg/kg vs IV 1 mg/kg, read-out: % F (oral bioavailability), Oral Rat PK; for Cmax: read-out: Cmax, IV Rat PK
Protocol: Pharmacokinetic Studies in Rats Test compounds were evaluated in fasted (no food for 18 hours prior to dosing) male Sprague Dawley rats (3 animals per group) by administration of 1 mg/kg intravenously into the jugular vein and […] by oral gavage. Ten plasma samples were drawn for each dosing route up to 24 hours into heparin-coated vacutainer tubes. The plasma concentrations of the test compounds were quantified by LC/MS/MS using an internal standards. WinNONLIN was used to determine PK parameters ±standard deviation (AUC, Cmax, CL, Vss and % oral bioavailabilty (% F) and are set forth in Table F.

[2] = system: S. aureus Smith (ATCC 13709); assay: Mouse systemic infection (septicemia) model, S. aureus Smith; assay type: in vivo; conditions: Staphylococcus aureus, CD-1 female mice; for responders at 3 mg/kg: ATCC13709, iv, IV 3 mg/kg one hour post infection, read-out: SA Smith septicemia survival IV (3 mg/kg); for responders at 3 mg/kg / responders at 30 mg/kg: 48 h, survival at 48 hours; for responders at 30 mg/kg: ATCC13709, po, PO 30 mg/kg one hour post infection, read-out: SA Smith septicemia survival PO (30 mg/kg); for ED50: ATCC13709, dose that prevents 50% of the mice from death, 48 hours
Summary of the method: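 Female CD-1 mice (18-22 g) infected IP with an inoculum lethal to all within 24–48 h. Compound given 1 h post-infection IV ([…]) or PO ([…]), typically six mice per dose group; survival followed for 48 h and PD50 (mg/kg) derived from 48 h survival.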

[3] = system: Uropathogenic E. coli EC200; assay: Murine kidney infection model, uropathogenic E. coli EC200; assay type: in vivo; conditions: BALB/c mice; for log reduction at 2 mg/kg / log reduction at 3 mg/kg: Escherichia coli, po, 36 h, read-out: EC200 UTI PO, log10 reduction in CFUs in the kidney versus untreated controls; for log reduction at 2 mg/kg: PO 2 mg/kg at 12 and 24 hours post infection; for log reduction at 3 mg/kg: PO @ 3 mpk
Protocol: (§1) Kidney Infection Models for Uropathogenic E. coli EC200 and K. pneumoniae ESBL Isolate KP453
Compounds were tested in a BALB/c murine kidney infection model challenged with tetracycline-resistant E. coli strain uropathogenic […] via intravenous injection. […] For IV administration test compound was dosed at 3 mg/kg. Thirty-six hours following initiation of treatment, mice were euthanized and bacterial reduction in the kidney was quantified by plating kidney homogenates. Results are reported in Table D as log10 reduction in colony forming units (CFUs) in the kidney versus untreated controls (receiving no test compound).

[4] = system: tetracycline-resistant tet(M) S. pneumoniae strain SP160; assay: Neutropenic respiratory infection model for S. pneumoniae (murine lung infection); assay type: in vivo; conditions: neutropenic BALB/c mice, SP160 intranasal, 30 mg/kg orally at 2 and 12 hours post-infection, lung CFU at 24 hours
Protocol: Neutropenic Respiratory Infection Models for S. pneumoniae
Compounds were tested in a neutropenic BALB/c murine model of lung infection challenged with tetracycline-resistant tet(M) S. pneumoniae strain SP160. Mice were made neutropenic by pre-treatment with cyclophosphamide and infected with SP160 via intranasal administration. Mice were dosed orally with 30 mg/kg compound at 2 and 12 hours post-infection. At 24 hours following initiation of treatment, mice were euthanized and bacterial reduction in the lung was quantified by plating lung homogenates. Data was recorded as log10 reduction in lung colony forming units versus an untreated control group.

[5] = system: K. pneumoniae ESBL Isolate KP453; assay: Murine kidney infection model, K. pneumoniae ESBL isolate KP453; assay type: in vivo; conditions: BALB/c mice; for log reduction at 50 mg/kg: Klebsiella pneumoniae, po, 36 h, PO 50 mg/kg at 9 and 24 hours post infection, read-out: KP453 ESBL UTI PO, log10 reduction in CFUs in the kidney versus untreated controls
Protocol: as §1
Compounds were also tested in BALB/c murine kidney infection model challenged with levofloxacin-resistant, ESBL^+ strain KP453 via intravenous injection with 2% carageenen. At 9 and 24 hours post infection mice were treated orally with 50 mg/kg of test compound. For IV administration, test compounds were dosed at 20 mg/kg. At 36 hours following initiation of treatment, mice were euthanized and bacterial reduction in the kidney was quantified by plating homogenates. Results are reported in Table D as log10 reduction in colony forming units (CFUs) in the kidney versus untreated controls (receiving no test compound).

[6] = system: tetracycline-resistant tet(M) MRSA strain SA191; assay: Neutropenic respiratory infection model for MRSA (murine lung infection); assay type: in vivo, Staphylococcus aureus; conditions: neutropenic BALB/c mice, SA191 intranasal, 50 mg/kg orally at 2 and 12 hours, lung CFU at 24 hours
Protocol: Neutropenic Respiratory Infection Model for MRSA
Compounds were tested in a neutropenic BALB/c murine model of lung infection challenged with a tetracycline-resistant tet(M) MRSA strain SA191 infected via intranasal administration. At 2 and 12 hours mice were dosed orally with 50 mg/kg compound. At 24 hours following initiation of treatment, mice were euthanized and bacterial reduction in the lung was quantified by plating lung homogenates. Data was recorded as log10 reduction in lung colony forming units versus an untreated control group.

[7] = IV 1 mg/kg, read-out: AUC, IV Rat PK
[8] = oral gavage 10 mg/kg, read-out: AUC, Oral Rat PK
[9] = IV, read-out: SA Smith septicemia PD50 IV
[10] = PO, read-out: SA Smith septicemia PD50 PO

Structure (SMILES) | log10 REDUCTION in colony forming units versus untreated control group (thigh) (S. aureus ATCC 13709) | clearance ([1]; IV 1 mg/kg) | bioavailability [1] | AUC [1, 7] | Cmax ([1]; IV 1 mg/kg) | AUC [1, 8] | responders at 3 mg/kg [2] | responders at 30 mg/kg [2] | ED50 [2, 9] | ED50 [2, 10] | 12 h urine, IV Rat PK ([1]; IV 1 mg/kg, urine, 12 h) | log reduction at 2 mg/kg [3] | log reduction at 3 mg/kg [3] | Bacterial Reduction in the Lung (Log10 change from 24 hour control) [4] | log reduction at 50 mg/kg [5] | Bacterial Reduction in the Lung (Log10 change from 24 hour control) [6] | KP453 ESBL UTI IV, log10 reduction in CFUs in the kidney versus untreated controls ([5]; IV 20 mg/kg) | EC200 UTI IV, log10 reduction in CFUs in the kidney versus untreated controls ([3]; IV, @ 5 mpk in cells (column head 3 mg/kg))
CC(C)CNCc1cc(O)c2c(c1F)C[C@H]1C[C@H]3[C@H](N(C)C)C(O)=C(C(N)=O)C(=O)[C@@]3(O)C(O)=C1C2=O [Compound S2-4-14] | 3.68 log10 | 3.88 mL/min/kg | 13.7% | 4430 ng·h/mL | 667 ng/mL | 6160 ng·h/mL | 100% | 100% | 0.84 mg/kg | 12.2 mg/kg | – | – | – | – | – | – | – | –
CN(C)[C@@H]1C(O)=C(C(N)=O)C(=O)[C@@]2(O)C(O)=C3C(=O)c4c(O)cc(CN(C)C(C)(C)C)c(F)c4C[C@H]3C[C@@H]12 [Compound S2-4-25] | 4.1 log10 | 19.4 mL/min/kg | 9.1% | 838 ng·h/mL | 214 ng/mL | 826 ng·h/mL | 100% | 100% | 0.35 mg/kg | 1.4 mg/kg | 12 h urine 11 ug/mL | 2.78 | 3.63 | – | – | – | – | –
CN(C)[C@@H]1C(O)=C(C(N)=O)C(=O)[C@@]2(O)C(O)=C3C(=O)c4c(O)cc(CN5CCCCCC5)c(Cl)c4C[C@H]3C[C@@H]12 [Compound S15-13-188] | – | – | – | – | – | – | 100% | 100% | – | 8.3 mg/kg | – | – | 3.48 | −0.22 Log10 | 1.55 | – | – | –
C[C@H]1CC[C@H](C)N1Cc1cc(O)c2c(c1Cl)C[C@H]1C[C@H]3[C@H](N(C)C)C(O)=C(C(N)=O)C(=O)[C@@]3(O)C(O)=C1C2=O [Compound S15-13-223] | – | – | – | – | – | – | 100% | 100% | – | – | – | 2.27 | – | −0.12 Log10 | 1.32 | – | – | –
C[C@@H](NCc1cc(O)c2c(c1N(C)C)C[C@H]1C[C@H]3[C@H](N(C)C)C(O)=C(C(N)=O)C(=O)[C@@]3(O)C(O)=C1C2=O)C(C)(C)C [Compound S16-10-79] | – | – | – | – | – | – | 100% | 100% | – | – | – | – | – | −4.31 Log10 | – | −1.27 Log10 | – | –
CN(C)[C@@H]1C(O)=C(C(N)=O)C(=O)[C@@]2(O)C(O)=C3C(=O)c4c(O)c(N)c(CN5CCCCCC5)c(Cl)c4C[C@H]3C[C@@H]12 [Compound S29-2-4] | – | – | – | – | – | – | 100% | 83% | – | – | – | – | – | – | – | −1.29 Log10 | – | –
COc1c(CN(C)C(C)(C)C2CC2)cc(O)c2c1C[C@H]1C[C@H]3[C@H](N(C)C)C(O)=C(C(N)=O)C(=O)[C@@]3(O)C(O)=C1C2=O [S24-9-21] | – | – | – | – | – | – | 100% | 100% | – | – | – | 2.3 | – | −0.89 Log10 | 2.16 | −1.98 Log10 | −2.87 log10 | @ 5 mpk −4.09 log10
